Measurements: PubChem BioAssay (NCI)
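GI50 marks 50% less growth. TGI is the concentration that stops growth completely.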

Columns and labels:
Experiment in all cases: NCI tumour cell line growth inhibition, 384-well format
SF-539 CNS = test system: SF-539 CNS
NCI-H23 lung = test system: NCI-H23 lung
UACC-257 melanoma = test system: UACC-257 melanoma
NCI-H522 lung = test system: NCI-H522 lung
A549 NSCLC = test system: A549 NSCLC
SK-MEL-5 melanoma = test system: SK-MEL-5 melanoma
CCRF-CEM leukemia = test system: CCRF-CEM leukemia
ACHN renal = test system: ACHN renal
DU-145 prostate = test system: DU-145 prostate
EKVX NSCLC = test system: EKVX NSCLC
U251 glioblastoma = test system: U251 glioblastoma
HOP-92 NSCLC = test system: HOP-92 NSCLC
NCI-H460 NSCLC = test system: NCI-H460 NSCLC
T-47D breast = test system: T-47D breast
HS 578T breast = test system: HS 578T breast
MOLT-4 leukemia = test system: MOLT-4 leukemia
KM12 colon = test system: KM12 colon
786-0 renal = test system: 786-0 renal
HCC-2998 colon = test system: HCC-2998 colon
HT29 colon = test system: HT29 colon
OVCAR-8 ovarian = test system: OVCAR-8 ovarian
MDA-MB-468 breast = test system: MDA-MB-468 breast
NCI-H226 lung = test system: NCI-H226 lung
SK-OV-3 ovarian = test system: SK-OV-3 ovarian
COLO 205 colon = test system: COLO 205 colon
HCT-15 colon = test system: HCT-15 colon
CAKI-1 renal = test system: CAKI-1 renal
TK-10 renal = test system: TK-10 renal

`CCn1c(CO)nn(-c2cc(O[C@@H](C)C(F)(F)F)c(C(=O)Nc3c(F)cccc3Cl)cc2F)c1=O` was tested, and the GI50 (SF-539 CNS) was 16.1 µM, the TGI (SF-539 CNS) was greater than 100 µM and the GI50 (NCI-H23 lung) was less than 0.01 µM. For the same compound, the TGI (NCI-H23 lung) was greater than 100 µM, the GI50 (UACC-257 melanoma) was 11.2 µM and the TGI (UACC-257 melanoma) was greater than 100 µM. It also gave a GI50 (NCI-H522 lung) of less than 0.01 µM, a TGI (NCI-H522 lung) of 84.5 µM and a GI50 (A549 NSCLC) of less than 0.01 µM. It also gave a TGI (A549 NSCLC) greater than 100 µM, a GI50 (SK-MEL-5 melanoma) of less than 0.01 µM and a TGI (SK-MEL-5 melanoma) of 18.8 µM. For the same compound, the GI50 (CCRF-CEM leukemia) was less than 0.01 µM, the TGI (CCRF-CEM leukemia) was 43 µM and the GI50 (ACHN renal) was less than 0.01 µM. It also gave a TGI (ACHN renal) greater than 100 µM, a GI50 (DU-145 prostate) of less than 0.01 µM and a TGI (DU-145 prostate) greater than 100 µM. It also gave a GI50 (EKVX NSCLC) of 63.4 µM, a TGI (EKVX NSCLC) greater than 100 µM and a GI50 (U251 glioblastoma) of less than 0.01 µM. The TGI (U251 glioblastoma) was 30.7 µM, the GI50 (HOP-92 NSCLC) was less than 0.01 µM and the TGI (HOP-92 NSCLC) was greater than 100 µM. The GI50 (NCI-H460 NSCLC) was less than 0.01 µM, the TGI (NCI-H460 NSCLC) was 14.7 µM and the GI50 (T-47D breast) was 7.65 µM. The TGI (T-47D breast) was 58.2 µM, the GI50 (HS 578T breast) was 15.2 µM and the TGI (HS 578T breast) was greater than 100 µM. For the same compound, the GI50 (MOLT-4 leukemia) was less than 0.01 µM, the TGI (MOLT-4 leukemia) was less than 0.01 µM and the GI50 (KM12 colon) was less than 0.01 µM. The TGI (KM12 colon) was greater than 100 µM, the GI50 (786-0 renal) was less than 0.01 µM and the TGI (786-0 renal) was 32.5 µM. It also gave a GI50 (HCC-2998 colon) of 18.6 µM, a TGI (HCC-2998 colon) greater than 100 µM and a GI50 (HT29 colon) of less than 0.01 µM. The TGI (HT29 colon) was 62.6 µM, the GI50 (OVCAR-8 ovarian) was less than 0.01 µM and the TGI (OVCAR-8 ovarian) was greater than 100 µM. The GI50 (MDA-MB-468 breast) was less than 0.01 µM, the TGI (MDA-MB-468 breast) was 22.6 µM and the GI50 (NCI-H226 lung) was 17.6 µM. It also gave a TGI (NCI-H226 lung) greater than 100 µM, a GI50 (SK-OV-3 ovarian) of 22.7 µM and a TGI (SK-OV-3 ovarian) greater than 100 µM. For the same compound, the GI50 (COLO 205 colon) was less than 0.01 µM, the TGI (COLO 205 colon) was greater than 100 µM and the GI50 (HCT-15 colon) was less than 0.01 µM. It also gave a TGI (HCT-15 colon) greater than 100 µM, a GI50 (CAKI-1 renal) of less than 0.01 µM and a TGI (CAKI-1 renal) greater than 100 µM. It also gave a GI50 (TK-10 renal) of less than 0.01 µM and a TGI (TK-10 renal) greater than 100 µM.
